Measurements from patent US10130615B2, “Benzomorphan analogs and the use thereof” (priority 2014, dated 2018).
Like-named read-outs stand apart in the source and are kept apart here.

Assays:
[1] = biological target: T1, μ-opioid receptor (Homo sapiens, UniProt P35372); experiment: biochemical; design: purchased Perkin Elmer, Shelton, Conn; host or cells: HEK-293 or CHO; conditions: HEK-293 or CHO cells; for EC50: read-out: GTPγS μ EC50; for Emax: relative to DAMGO, read-out: GTPγS μ Emax
[2] = biological target: T1, μ-opioid receptor; experiment: μ-opioid receptor GTPγS functional assay, U2OS cells; conditions: for Emax: read-out: GTPγS μ Emax
[3] = biological target: κ-opioid receptor (Homo sapiens, UniProt P41145); experiment: κ-opioid receptor GTPγS functional assay, U2OS cells; type: biochemical; design: expressed in transfected cells; host or cells: U-2 OS
Procedure: Plates were incubated for 30 min at a temperature of about 25° C. with shaking.

[4] = U2OS cells, read-out: GTPγS κ EC50

κ-opioid receptor, sequence (P41145 whole entry): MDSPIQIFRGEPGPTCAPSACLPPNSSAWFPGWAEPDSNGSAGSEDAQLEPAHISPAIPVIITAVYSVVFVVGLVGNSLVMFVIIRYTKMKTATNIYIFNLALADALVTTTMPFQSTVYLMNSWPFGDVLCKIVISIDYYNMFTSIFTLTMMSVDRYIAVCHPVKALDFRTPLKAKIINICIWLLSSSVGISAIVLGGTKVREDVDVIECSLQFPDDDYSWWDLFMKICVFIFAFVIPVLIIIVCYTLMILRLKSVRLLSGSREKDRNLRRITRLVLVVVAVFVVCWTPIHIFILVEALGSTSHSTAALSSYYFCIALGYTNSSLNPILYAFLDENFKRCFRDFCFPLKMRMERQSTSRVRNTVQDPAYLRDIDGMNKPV
T1 sequence (P35372 whole entry, species assumed): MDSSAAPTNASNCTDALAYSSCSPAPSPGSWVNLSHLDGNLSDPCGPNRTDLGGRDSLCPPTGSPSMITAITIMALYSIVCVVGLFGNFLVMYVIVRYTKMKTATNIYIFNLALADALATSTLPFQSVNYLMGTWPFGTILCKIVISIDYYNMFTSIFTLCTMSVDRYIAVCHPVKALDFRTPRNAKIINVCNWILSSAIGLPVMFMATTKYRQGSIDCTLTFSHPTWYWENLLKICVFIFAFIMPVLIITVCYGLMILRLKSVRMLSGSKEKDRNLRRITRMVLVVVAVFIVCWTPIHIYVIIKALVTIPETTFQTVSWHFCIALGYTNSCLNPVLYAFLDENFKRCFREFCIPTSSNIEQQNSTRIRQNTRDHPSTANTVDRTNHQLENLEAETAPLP

SMILES | EC50 [1] [nM] | Emax [1] [%] | further results
C[C@H]1[C@H]2Cc3ccc(O)cc3[C@]1(CCNC(=O)[C@@H]1CCCCN1)CCN2C [Compound 70, (S)-N-(2-((2R,6R,11R)-8-hydroxy-3,11-dimethyl-2,3,4,5-tetrahydro-2,6-methano-benzo[d]azocin-6(1H)-yl)ethyl)-piperidine-2-carboxamide] | 783 ± 208 | 27.7 ± 0.88 | –
C[C@H]1[C@H]2Cc3ccc(O)cc3[C@]1(CCNC(=O)Nc1cccc(Oc3ccccc3)c1)CCN2C [Compound 74, 1-(2-((2R,6R,11R)-8-hydroxy-3,11-dimethyl-2,3,4,5-tetrahydro-2,6-methanobenzo[d]azocin-6(1H)-yl)ethyl)-3-(3-phenoxyphenyl)urea] | 18.4 ± 2.09 | 52.1 ± 1.88 | –
COc1ccc2c(c1)[C@]1(CCN3CCC[C@@H]3C(=O)O)CCN(C)[C@H](C2)[C@@H]1C [Compound 60, (2-((2R,6S,11R)-8-methoxy-3,11-dimethyl-2,3,4,5-tetrahydro-2,6-methanobenzo[d]azocin-6(1H)-yl)ethyl)-D-proline] | – | – | EC50 [2]: 4.91 ± 1.08 µM; Emax [2]: 49 ± 3.61%; Emax ([3]; U2OS cells): 97.7 ± 8.09%
COc1ccc2c(c1)[C@@]1(CCN[C@H](C(=O)O)C(C)C)CCN(CC3CC3)[C@@H](C2)[C@H]1C [Compound 41, (2-((2S,6S,11S)-3-(cyclopropylmethyl)-8-methoxy-11-methyl-2,3,4,5-tetrahydro-2,6-methanobenzo[d]azocin-6(1H)-yl)ethyl)-L-valine] | – | 0 | –
COc1ccc2c(c1)[C@]1(CCN3CCC(N(C4CC4)S(=O)(=O)c4ccc(Cl)cc4)CC3)CCN(C)[C@H](C2)[C@@H]1C [Compound 53, 4-chloro-N-cyclopropyl-N-(1-(2-((2R,6R,11R)-8-methoxy-3,11-dimethyl-2,3,4,5-tetrahydro-2,6-methanobenzo-[d]azocin-6(1H)-yl)ethyl)piperidin-4-yl)-benzenesulfonamide] | – | – | EC50 [2]: 1.25 ± 0.0854 µM; Emax [2]: 63.3 ± 2.03%; Emax ([3]; U2OS cells): 13.3 ± 2.19%; EC50 [3, 4]: 7 ± 3.06 µM
C[C@H]1[C@H]2Cc3ccc(O)cc3[C@]1(CCNCc1ccco1)CCN2CC1CC1 [Compound 17, (2R,6R,11R)-3-(cyclopropylmethyl)-6-(2-((furan-2-ylmethyl)amino)ethyl)-11-methyl-1,2,3,4,5,6-hexahydro-2,6-methanobenzo[d]azocin-8-ol] | – | -0.88 ± 0.94 | –
C[C@H]1[C@H]2Cc3ccc(O)cc3[C@]1(CCN(C)C)CCN2C [Compound 22, (2R,6R,11R)-6-(2-(dimethyl-amino)-ethyl)-3,11-dimethyl-1,2,3,4,5,6-hexahydro-2,6-methanobenzo[d]azocin-8-ol] | 1070 ± 143 | 37.3 ± 1 | –
COc1ccc2c(c1)[C@]1(CCNC(=O)NS(=O)(=O)c3ccc(F)cc3)CCN(C)[C@H](C2)[C@@H]1C [Compound 67, 4-fluoro-N-((2-((2R,6R,11R)-8-methoxy-3,11-dimethyl-2,3,4,5-tetrahydro-2,6-methanobenzo[d]azocin-6(1H)-yl)ethyl)-carbamoyl)benzene-sulfonamide] | 2450 ± 692 | 26.3 ± 3.38 | –
C[C@H]1[C@H]2Cc3ccc(O)cc3[C@]1(CCNC(=O)[C@@H]1CCCN1)CCN2C [Compound 71, (S)-N-(2-((2R,6R,11R)-8-hydroxy-3,11-dimethyl-2,3,4,5-tetrahydro-2,6-methano-benzo[d]azocin-6(1H)-yl)ethyl)-pyrrolidine-2-carboxamide] | 1580 ± 177 | 36 ± 0.58 | –
COc1ccc2c(c1)[C@@]1(CCO)CCN(C)[C@@H](C2)[C@H]1C [Compound 49, 2-((2S,6R,11S)-8-methoxy-3,11-dimethyl-2,3,4,5-tetrahydro-2,6-methanobenzo-[d]azocin-6(1H)-yl)ethan-1-ol] | – | – | Emax [2]: 21%; Emax ([3]; U2OS cells): 41 ± 4.58%
COc1ccc2c(c1)[C@]1(CCN(C)CCCN(C)C)CCN(C)[C@H](C2)[C@@H]1C [Compound 54] | – | – | EC50 [2]: 18.7 ± 1.89 µM; Emax [2]: 95 ± 2.65%; Emax ([3]; U2OS cells): 125 ± 1.53%; EC50 [3, 4]: 9.86 ± 0.349 µM
COc1ccc2c(c1)[C@]1(CCO)CCN(C)[C@H](C2)[C@@H]1C [Compound 50, 2-((2R,6S,11R)-8-methoxy-3,11-dimethyl-2,3,4,5-tetrahydro-2,6-methano-benzo[d]azocin-6(1H)-yl)ethan-1-ol] | – | – | EC50 [2]: 2.39 ± 0.271 µM; Emax [2]: 88.3 ± 7.62%; EC50 [3]: > 2.32 µM; Emax ([3]; U2OS cells): 103 ± 8.41%
C[C@H]1[C@H]2Cc3ccc(O)cc3[C@]1(CCNC(=O)NS(=O)(=O)c1ccc(F)cc1)CCN2CC1CC1 [Compound 19, N-((2-((2R,6R,11R)-3-(cyclopropyl-methyl)-8-hydroxy-11-methyl-2,3,4,5-tetrahydro-2,6-methanobenzo[d]azocin-6(1H)-yl)ethyl)carbamoyl)-4-fluoro-benzenesulfonamide] | 17.3 ± 6.99 | 10.1 ± 0.98 | –
C[C@H]1[C@H]2Cc3ccc(O)cc3[C@]1(CCNC(=O)NCC(c1ccccc1)c1ccccc1)CCN2C [Compound 77, 1-(2,2-diphenylethyl)-3-(2-((2R,6R,11R)-8-hydroxy-3,11-dimethyl-2,3,4,5-tetrahydro-2,6-methanobenzo[d]azocin-6(1H)-yl)ethyl)urea] | 4.61 ± 0.75 | 57.1 ± 2.33 | –
COc1ccc2c(c1)[C@]1(CCNCCCN3CCCC3=O)CCN(C)[C@H](C2)[C@@H]1C [Compound 57, 1-(3-((2-((2R,6R,11R)-8-methoxy-3,11-dimethyl-2,3,4,5-tetrahydro-2,6-methanobenzo-[d]azocin-6(1H)-yl)ethyl)amino)propyl)pyrrolidin-2-one] | – | – | EC50 [2]: 11.3 ± 0.435 µM; Emax [2]: 70.7 ± 2.03%; Emax ([3]; U2OS cells): 118 ± 2%; EC50 [3, 4]: 11.4 ± 0.994 µM
C[C@H]1[C@H]2Cc3ccc(O)cc3[C@]1(CCNCc1ccc(F)cc1)CCN2CC1CC1 [Compound 16, (2R,6R,11R)-3-(cyclopropylmethyl)-6-(2-((4-fluorobenzyl)amino)ethyl)-11-methyl-1,2,3,4,5,6-hexahydro-2,6-methanobenzo[d]azocin-8-ol] | 3.04 ± 0.26 | 10.8 ± 1.25 | –
C[C@@H]1[C@@H]2Cc3ccc(O)cc3[C@@]1(CCN1CCC(N(C3CC3)S(=O)(=O)c3ccccc3)CC1)CCN2C [Compound 14, N-cyclopropyl-N-(1-(2-((2S,6S,11S)-8-hydroxy-3,11-dimethyl-2,3,4,5-tetrahydro-2,6-methanobenzo[d]azocin-6(1H)-yl)ethyl)piperidin-4-yl)-benzenesulfonamide] | 11900 ± 1220 | 69 ± 0.58 | –
C[C@H]1[C@H]2Cc3ccc(O)cc3[C@]1(CCNC(=O)NS(=O)(=O)c1ccccc1)CCN2C [Compound 75, N-((2-((2R,6R,11R)-8-hydroxy-3,11-dimethyl-2,3,4,5-tetrahydro-2,6-methanobenzo[d]azocin-6(1H)-yl)-ethyl)carbamoyl)benzenesulfonamide] | 314 ± 30.2 | 24.7 ± 0.17 | –
C[C@H]1[C@H]2Cc3ccc(O)cc3[C@]1(CCNC(=O)NC(c1ccccc1)c1ccccc1)CCN2C [Compound 73, 1-Benzhydryl-3-(2-((2R,6R,11R)-8-hydroxy-3,11-dimethyl-2,3,4,5-tetrahydro-2,6-methanobenzo[d]azocin-6(1H)-yl)ethyl)urea] | 3.64 ± 0.88 | 69.4 ± 1.22 | –
C[C@@H]1[C@@H]2Cc3ccc(O)cc3[C@@]1(CCN1CCN(C(c3ccc(F)cc3)c3ccc(F)cc3)CC1)CCN2C [Compound 15, (2S,6S,11S)-6-(2-(4-(bis(4-fluoro-phenyl)methyl)piperazin-1-yl)ethyl)-3,11-dimethyl-1,2,3,4,5,6-hexahydro-2,6-methanobenzo[d]azocin-8-ol] | 3460 ± 314 | 97.7 ± 1.76 | –
C[C@H]1[C@H]2Cc3ccc(O)cc3[C@]1(CCN1CCCC1)CCN2C [Compound 20, (2R,6R,11R)-3,11-dimethyl-6-(2-(pyrrolidin-1-yl)ethyl)-1,2,3,4,5,6-hexahydro-2,6-methanobenzo[d]azocin-8-ol] | – | 108 ± 10.1 | –
COc1ccc2c(c1)[C@]1(CCNC(=O)[C@@H]3CCC(=O)N3)CCN(C)[C@H](C2)[C@@H]1C [Compound 84, (S)-N-(2-((2R,6R,11R)-8-methoxy-3,11-dimethyl-2,3,4,5-tetrahydro-2,6-methano-benzo[d]azocin-6(1H)-yl)ethyl)-5-oxopyrrolidine-2-carboxamide] | 12400 ± 540 | 32.4 ± 0.76 | –
C[C@H]1[C@H]2Cc3ccc(O)cc3[C@]1(CCNC(=O)[C@@H]1CCC(=O)N1)CCN2CC1CC1 [Compound 81, (S)-N-(2-((2R,6R,11R)-3-(cyclopropyl-methyl)-8-hydroxy-11-methyl-2,3,4,5-tetrahydro-2,6-methanobenzo[d]azocin-6(1H)-yl)ethyl)-5-oxopyrrolidine-2-carboxamide] | 18.1 ± 4.15 | 10.8 ± 0.96 | –
COc1ccc2c(c1)[C@@]1(CCNC3(C(=O)O)CC3)CCN(CC3CC3)[C@@H](C2)[C@H]1C [Compound 35, 1-((2-((2S,6S,11S)-3-(cyclopropyl-methyl)-8-methoxy-11-methyl-2,3,4,5-tetrahydro-2,6-methanobenzo[d]azocin-6(1H)-yl)ethyl)amino)cyclopropane-1-carboxylic acid] | 17500 ± 6780 | 13 ± 1.53 | –
C[C@H]1[C@H]2Cc3ccc(O)cc3C1(CCNS(=O)(=O)N(C)C)CCN2CC1CC1 [Compound 9] | – | – | EC50 [2]: 0.00067 ± 1e-05 µM; Emax [2]: 27%
C[C@H]1[C@H]2Cc3ccc(O)cc3[C@]1(CCNC(=O)[C@@H]1CCCC(=O)N1)CCN2CC1CC1 [Compound 82, (S)-N-(2-((2R,6R,11R)-3-(cyclopropyl-methyl)-8-hydroxy-11-methyl-2,3,4,5-tetrahydro-2,6-methanobenzo[d]azocin-6(1H)-yl)ethyl)-6-oxopiperidine-2-carboxamide] | 19.6 ± 9.39 | 8.9 ± 0.9 | –
COc1ccc2c(c1)[C@@]1(CCNCC(=O)O)CCN(CC3CC3)[C@@H](C2)[C@H]1C [Compound 39, (2-((2S,6S,11S)-3-(cyclopropylmethyl)-8-methoxy-11-methyl-2,3,4,5-tetrahydro-2,6-methanobenzo[d]azocin-6(1H)-yl)ethyl)glycine] | – | 19.7 ± 3.18 | –
